Test results reported in PubChem BioAssay (NCI).
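Five compound concentrations were applied to cells in 96-well plates for 48 hours; endpoints were derived by simple linear interpolation of the resulting dose-response curve. At the GI50, growth is halved. TGI: total growth inhibition.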

Columns and labels:
Assay in all cases: NCI tumour cell line growth inhibition, 48 h
[1] = tested on: HCC-2998 colon
[2] = tested on: NCI/ADR-RES ovarian
[3] = tested on: MDA-MB-231 breast
[4] = tested on: CAKI-1 renal
[5] = tested on: ACHN renal
[6] = tested on: IGROV1 ovarian
[7] = tested on: SF-539 CNS
[8] = tested on: OVCAR-3 ovarian
[9] = tested on: NCI-H23 lung
[10] = tested on: SR leukemia

NC(N)=N/N=C/c1c(-c2ccc(Cl)c([N+](=O)[O-])c2)nc2sc3ccccc3n12
GI50 [1]: 0.296 µM | TGI [1]: 0.95 µM | GI50 [2]: 0.583 µM | TGI [2]: 1.76 µM | GI50 [3]: 0.697 µM | TGI [3]: 1.47 µM | GI50 [4]: 1.66 µM | TGI [4]: 8.49 µM | GI50 [5]: 0.862 µM | TGI [5]: 1.56 µM | GI50 [6]: 11.8 µM | TGI [6]: > 50 µM

NC(=O)c1ncn(C2OC(CO)C(O)C2O)c1N (stereo not drawn)
GI50 [1]: > 100 µM | TGI [1]: > 100 µM | GI50 [2]: > 100 µM | TGI [2]: > 100 µM | GI50 [3]: > 100 µM | TGI [3]: > 100 µM | GI50 [4]: > 100 µM | TGI [4]: > 100 µM | GI50 [7]: > 100 µM | TGI [7]: > 100 µM | GI50 [5]: > 100 µM | TGI [5]: > 100 µM | GI50 [8]: > 100 µM | TGI [8]: > 100 µM | GI50 [9]: > 100 µM | TGI [9]: > 100 µM | GI50 [6]: > 100 µM | TGI [6]: > 100 µM

C=C1CC/C=C(\C)CC[C@H](C(=C)C)[C@@H](O)/C=C(/CO)CCC1O (stereo partly drawn)
GI50 [1]: > 100 µM | TGI [1]: > 100 µM | GI50 [2]: > 100 µM | TGI [2]: > 100 µM | GI50 [3]: > 100 µM | TGI [3]: > 100 µM | GI50 [4]: 81.4 µM | TGI [4]: > 100 µM | GI50 [7]: > 100 µM | TGI [7]: > 100 µM | GI50 [5]: > 100 µM | TGI [5]: > 100 µM | GI50 [8]: 40 µM | TGI [8]: > 100 µM | GI50 [9]: 80.6 µM | TGI [9]: > 100 µM | GI50 [6]: 44.9 µM | TGI [6]: > 100 µM

COc1cc(CCc2ccc(OC(C)=O)cc2)cc(OC)c1OC
TGI [4]: > 100 µM | TGI [7]: > 100 µM | TGI [5]: > 100 µM | TGI [8]: > 100 µM | TGI [6]: > 100 µM

Nc1nc(=S)[nH]c(C(=O)Nc2nccs2)c1-c1ccccc1
TGI [1]: > 100 µM | TGI [4]: > 100 µM | TGI [7]: > 100 µM | TGI [5]: > 100 µM | TGI [8]: > 100 µM | TGI [9]: > 100 µM | TGI [6]: > 100 µM | TGI [10]: > 100 µM

CN(C)c1ccc(O[Si](Oc2ccc(N(C)C)cc2)(Oc2ccc(N(C)C)cc2)Oc2ccc(N(C)C)cc2)cc1
TGI [1]: > 100 µM | TGI [4]: > 100 µM | TGI [7]: > 100 µM | TGI [5]: > 100 µM | TGI [8]: > 100 µM | TGI [9]: > 100 µM | TGI [6]: > 100 µM | TGI [10]: > 100 µM

CCCCCCCCCCCCCCC(C)CCC(=O)O (stereo not drawn)
TGI [4]: > 100 µM | TGI [7]: > 100 µM | TGI [5]: > 100 µM | TGI [8]: > 100 µM | TGI [9]: > 100 µM | TGI [6]: > 100 µM

Cc1ccc(C2=C(Cl)C(=O)C(c3ccc(C)cc3)=C(Cl)C2=O)cc1
TGI [2]: > 100 µM | TGI [4]: > 100 µM | TGI [7]: > 100 µM | TGI [5]: > 100 µM | TGI [8]: > 100 µM | TGI [9]: > 100 µM | TGI [6]: > 100 µM | TGI [10]: > 100 µM

COc1ccc(C(=O)O/N=C2/CCCCC2CN(C)C)cc1 (stereo not drawn)
TGI [1]: > 100 µM | TGI [4]: > 100 µM | TGI [7]: > 100 µM | TGI [5]: > 100 µM | TGI [8]: > 100 µM | TGI [9]: > 100 µM | TGI [6]: > 100 µM | TGI [10]: > 100 µM

OCC(O)C(O)C(O)C(O)c1nn[nH]n1 (stereo not drawn)
TGI [4]: > 100 µM | TGI [7]: > 100 µM | TGI [5]: > 100 µM | TGI [8]: > 100 µM | TGI [9]: > 100 µM | TGI [6]: > 100 µM | TGI [10]: > 100 µM

CC1CC(C)C(C(O)CC2CC(=O)N(c3ccccc3)C(=O)C2)C(O)C1 (stereo not drawn)
TGI [1]: > 100 µM | TGI [4]: > 100 µM | TGI [7]: > 100 µM | TGI [5]: > 100 µM | TGI [8]: > 100 µM | TGI [9]: > 100 µM | TGI [6]: > 100 µM | TGI [10]: > 100 µM

c1ccc2c3c([nH]c2c1)C1C2CCCCN2C(c2ccncc2)N1CC3 (stereo not drawn)
TGI [4]: > 100 µM | TGI [7]: > 100 µM | TGI [5]: > 100 µM | TGI [8]: > 100 µM | TGI [9]: > 100 µM | TGI [10]: > 100 µM

NNC(=O)N/N=C1\CN(c2ccc(Cl)cc2Cl)C(=O)C(=O)C1c1nc2ccccc2o1 (stereo not drawn)
TGI [1]: > 100 µM | TGI [4]: > 100 µM | TGI [7]: > 100 µM | TGI [5]: > 100 µM | TGI [8]: > 100 µM | TGI [9]: > 100 µM | TGI [6]: > 100 µM | TGI [10]: > 100 µM

[Cl-].[Gd+3].[O-]/N=C(\c1ccccc1)c1ccccn1.[O-]/N=C(\c1ccccc1)c1ccccn1.[O-]/N=C(\c1ccccc1)c1ccccn1
GI50 [1]: 30.7 µM | TGI [1]: > 100 µM | GI50 [4]: 42.3 µM | TGI [4]: > 100 µM | GI50 [7]: > 100 µM | TGI [7]: > 100 µM | GI50 [5]: 64.3 µM | TGI [5]: > 100 µM | GI50 [8]: 21.3 µM | TGI [8]: 79.5 µM | GI50 [9]: > 100 µM | TGI [9]: > 100 µM | GI50 [6]: 81.4 µM | TGI [6]: > 100 µM

O=C(/C=C(\[O-])c1ccccc1)CCCCCCC(=O)/C=C(\[O-])c1ccccc1.O=C(/C=C(\[O-])c1ccccc1)CCCCCCC(=O)/C=C(\[O-])c1ccccc1.O=C(/C=C(\[O-])c1ccccc1)CCCCCCC(=O)/C=C(\[O-])c1ccccc1.[Nd+3].[Nd+3]
GI50 [1]: > 50 µM | TGI [1]: > 50 µM | GI50 [4]: > 50 µM | TGI [4]: > 50 µM | GI50 [7]: > 50 µM | TGI [7]: > 50 µM | GI50 [5]: > 50 µM | TGI [5]: > 50 µM | GI50 [8]: > 50 µM | TGI [8]: > 50 µM | GI50 [9]: > 50 µM | TGI [9]: > 50 µM | GI50 [6]: > 50 µM | TGI [6]: > 50 µM
